Test results from US8497383B2, “HIV protease inhibitors” (Merck Sharp & Dohme Corp., priority 2009, dated 2013).

What was measured:
[1] = target: T1, wild-type HIV-1 protease (Human immunodeficiency virus type 1 group M subtype B, UniProt P04585); assay: Assay for inhibition of microbial expressed HIV protease; assay type: biochemical
T1 construct: the protease (which was expressed in Eschericia coli); made in house; host or cells: Escherichia coli
Protocol: Inhibition studies of the reaction of the protease (which was expressed in Eschericia coli) with a peptide substrate [Val-Ser-Gln-Asn-(betanapthyl)Ala-Pro-Ile-Val] (SEQ ID NO: 1). The inhibitor is first preincubated with the enzyme in assay buffer (50 mM sodium acetate, pH 5.5, 100 mM NaCl, and 0.1% BSA) for 30 minutes at room temperature. Substrate is added to 440 micromolar in a total volume of 80 microliters containing 5 picomolar HIV-1 protease, and the reaction is incubated for 1 hour at 30° C. The reaction is quenched by addition of 120 microliters of 10% phosphoric acid, and product formation is determined after separation of product and substrate on a Vydac C18 column connected to an Alliance high performance liquid chromatography system (Waters Corporation). The extent of inhibition of the reaction is determined from the peak area of the products.

[2] = test system: acute HIV infection of T-lymphoid cells (HIV-1 replication); assay: Assay for inhibition of HIV replication (Spread Assay); assay type: cell-based; conditions: Human immunodeficiency virus 1, T-lymphoid, 10% FBS
Protocol: Assays for the inhibition of acute HIV infection of T-lymphoid cells were conducted in accordance with Vacca, J. P. et al., Proc. Natl. Acad. Sci. USA 1994, 91: 4096.

Row | Compound | IC50 [1] [nM] | IC95 [2] [nM] | inhibition at 0.5 µM ([2]; @ 500 nM, read-out: Spread - inhibition at a fixed concentration) [%]
1 | COC(=O)N[C@H](C(=O)NCCN[C@@H]1CNC[C@H]1N(Cc1ccccc1)S(=O)(=O)c1ccc(N)cc1)C(c1ccccc1)c1ccccc1 [Example 9, N-(2-{[(3R,4R)-4-{[(4-aminophenyl)sulfonyl](benzyl)amino}pyrrolidin-3-yl]amino}ethyl)-Nα-(methoxycarbonyl)-β-phenyl-L-phenylalaninamide] | 8.6 | 505 | –
2 | COC(=O)N[C@H](C(=O)NCCN[C@@H]1CNC[C@H]1N(CC(C)C)S(=O)(=O)c1ccc(N)cc1)C(c1ccccc1)c1ccccc1 [Example 7, N-(2-{[(3R,4R)-4-{[(4-aminophenyl)sulfonyl](2-methylpropyl)amino}pyrrolidin-3-yl]amino}ethyl)-Nα-(methoxycarbonyl)-β-phenyl-L-phenylalaninamide] | 3.7 | 500 | –
3 | COC(=O)N[C@H](C(=O)NCCN[C@@H]1CNC[C@H]1N(CCC(C)C)S(=O)(=O)c1ccc(N)cc1)C(c1ccccc1)c1ccccc1 [Example 1, N-(2-{[(3R,4R)-4-{[(4-aminophenyl)sulfonyl](3-methylbutyl)amino}pyrrolidin-3-yl]amino}ethyl)-Nα-(methoxycarbonyl)-β-phenyl-L-phenylalaninamide] | 0.7 | 495 | –
4 | COC(=O)N[C@H](C(=O)NCCN[C@@H]1CNC[C@H]1N(C(C)C)S(=O)(=O)c1ccc(N)cc1)C(c1ccccc1)c1ccccc1 [Example 8, N-(2-{[(3R,4R)-4-{[(4-aminophenyl)sulfonyl](isopropyl)amino}pyrrolidin-3-yl]amino}ethyl)-Nα-(methoxycarbonyl)-β-phenyl-L-phenylalaninamide] | 22 | – | 26
5 | COC(=O)N[C@H](C(=O)N[C@@H](C)CN[C@@H]1CNC[C@H]1N(CCC(C)C)S(=O)(=O)c1ccc(N)cc1)C(c1ccccc1)c1ccccc1 [Example 2, N-[(2S)-1-{[(3R,4R)-4-{[(4-aminophenyl)sulfonyl](3-methylbutyl)amino}pyrrolidin-3-yl]amino}propan-2-yl]-Nα-(methoxycarbonyl)-β-phenyl-L-phenylalaninamide] | 0.055 | 423 | –
6 | COC(=O)N[C@H](C(=O)NC(C)(C)CN[C@@H]1CNC[C@H]1N(CCC(C)C)S(=O)(=O)c1ccc(N)cc1)C(c1ccccc1)c1ccccc1 [Example 6, N-(1-{[(3R,4R)-4-{[(4-aminophenyl)sulfonyl](3-methylbutyl)amino}pyrrolidin-3-yl]amino}-2-methylpropan-2-yl)-Nα-(methoxycarbonyl)-β-phenyl-L-phenylalaninamide] | 0.05 | 291 | –
7 | CCCCC(CN[C@@H]1CNC[C@H]1N(CCC(C)C)S(=O)(=O)c1ccc(N)cc1)NC(=O)[C@@H](NC(=O)OC)C(c1ccccc1)c1ccccc1 (stereo partly drawn) [Example 4, N-(1-{[(3R,4R)-4-{[(4-aminophenyl)sulfonyl](3-methylbutyl)amino}pyrrolidin-3-yl]amino}hexan-2-yl)-Nα-(methoxycarbonyl)-β-phenyl-L-phenylalaninamide] | 3.6 | 399 | –
8 | COC(=O)N[C@H](C(=O)N[C@H](CN[C@@H]1CNC[C@H]1N(CCC(C)C)S(=O)(=O)c1ccc(N)cc1)CC(C)C)C(c1ccccc1)c1ccccc1 [Example 5, N-[(2S)-1-{[(3R,4R)-4-{[(4-aminophenyl)sulfonyl](3-methylbutyl)amino}pyrrolidin-3-yl]amino}-4-methylpentan-2-yl]-Nα-(methoxycarbonyl)-β-phenyl-L-phenylalaninamide] | 3.2 | 405 | –
9 | COC(=O)N[C@H](C(=O)NCCN(C)[C@@H]1CNC[C@H]1N(CCC(C)C)S(=O)(=O)c1ccc(N)cc1)C(c1ccccc1)c1ccccc1 [Example 10, N-{2-[{(3R,4R)-4-[[(4-aminophenyl)sulfonyl](3-methylbutyl)amino]pyrrolidin-3-yl}(methyl)amino]ethyl}-N-alpha-(methoxycarbonyl)-beta-phenyl-L-phenylalaninamide] | 15 | 217 | –
10 | CC[C@@H](CN[C@@H]1CNC[C@H]1N(CCC(C)C)S(=O)(=O)c1ccc(N)cc1)NC(=O)[C@@H](NC(=O)OC)C(c1ccccc1)c1ccccc1 [Example 3, N-[(2S)-1-{[(3R,4R)-4-{[(4-aminophenyl)sulfonyl](3-methylbutyl)amino}pyrrolidin-3-yl]amino}butan-2-yl]-Nα-(methoxycarbonyl)-β-phenyl-L-phenylalaninamide] | 0.22 | 472 | –
11 | COC(=O)N[C@H](C(=O)NCCN[C@@H]1CNC[C@H]1N(CCC(C)C)S(=O)(=O)c1ccc(CO)cc1)C(c1ccccc1)c1ccccc1 [Example 11, N-[2-({(3R,4R)-4-[{[4-(hydroxymethyl)phenyl]sulfonyl}(3-methylbutyl)amino]pyrrolidin-3-yl}amino)ethyl]-Nalpha-(methoxycarbonyl)-beta-phenyl-L-phenylalaninamide] | 0.29 | 328 | –
12 | COC(=O)N[C@H](C(=O)NCCC[C@@H]1CNC[C@H]1N(CCC(C)C)S(=O)(=O)c1ccc(N)cc1)C(c1ccccc1)c1ccccc1 (relative stereo) [Example 12, N-{3-[(3R*,4S*)-4-{[(4-aminophenyl)sulfonyl](3-methylbutyl)amino}pyrrolidin-3-yl]propyl}-Nα-(methoxycarbonyl)-β-phenyl-L-phenylalaninamide] | 0.05 | 324 | –
